Measured values from patent US7572923B2, “Indirubin derivatives having anticancer property against human cancer cell line” (Anygen Co., Ltd., priority 2004, dated 2009).

How the values were obtained:
[1] = tested on: leukemia cell line (HL-60); assay: Differentiation inducing effect, NBT reduction method; assay type: cell-based, human; settings: 3 days
Description: For measuring the differentiation inducing effect to acute bone merrow leukemia cell line (HL-60) by indirubin AGM compound, NBT (nitroblue tetrazolium) reduction reaction method is employed. The leukemia cell line is diluted into 2×10^5 cfu/ml. […] Incubated cells are washed with phosphate buffered saline (PBS). Then, they are further incubated in PBS solution containing 0.1% NBT and 200 ng/ml of PMA (phorbol 12-myristate 13-acetate) for 30 minutes at 37° C. Incubated cells are centrifuged and collected cells are washed with PBS solution. Using cell number counter, differentiated cells forming nitroblue formazan among total cells are counted.

[2] = tested on: human leukemia cell line (HL-60); assay: Differentiation with low concentration 1,25-(OH)2D3 or ATRA, NBT reduction method; assay type: cell-based; settings: for % of Differentiation, 1,25-(OH)2D3: 1 μM compound with 5 nM of 1,25-(OH)2D3; for % of Differentiation, all-trans RA: 1 μM compound with 50 nM of ATRA
Description: For measuring the differentiation inducing effect to acute bone merrow leukemia cell line (HL-60) by indirubin AGM compound, NBT (nitroblue tetrazolium) reduction reaction method is employed. The leukemia cell line is diluted into 2×10^5 cfu/ml. After treating 20 μM and 1 μM concentrations of test compounds, test plate is incubated for 3 days at 37° C. in 5% CO2 incubator. Incubated cells are washed with phosphate buffered saline (PBS). Then, they are further incubated in PBS solution containing 0.1% NBT and 200 ng/ml of PMA (phorbol 12-myristate 13-acetate) for 30 minutes at 37° C. Incubated cells are centrifuged and collected cells are washed with PBS solution. Using cell number counter, differentiated cells forming nitroblue formazan among total cells are counted.
Next, we test if AGM compound of present invention can synergically induce the differentiation of acute bone merrow leukemia cell line when it is treated with low concentration of 1,25-dihydroxyvitamin D3[1,25-(OH)2D3] or all-trans retinoic acid (ATRA) known as differentiation inducing agent. […] […] As a positive control, conventional differentiation inducing agent is used.

[3] = tested on: human lung cancer cell line (A549); assay: Inhibition of cancer cell line proliferation, A549; assay type: cell-based; settings: 96 h, 3˜4 days incubation, absorbance at 515 nm
Description: (§1) For measuring the proliferation inhibition by indirubin compound, the method disclosed in K. Likhitwitayawuid et al. Journal. Nat. Prod. […] Followings are simple description of this method. The cancer cell line is diluted into 5×10^4 cfu/ml. Then, various concentrations of test compounds are added to 96 well microtiter plate containing diluted cell line. After incubating test plate for 3˜4 days at 37° C., the test plate is dried and Tris-base is added. Then, using ELISA plate detector, the absorbance at 515 nm is measured. IC50 is measured by non-linear regression method.

[4] = tested on: human stomach cancer cell line (SNU-638); assay: Inhibition of cancer cell line proliferation, SNU-638; assay type: cell-based; settings: 96 h, 3˜4 days incubation, absorbance at 515 nm
Description: as §1

[5] = tested on: human colon cancer cell line (Col2); assay: Inhibition of cancer cell line proliferation, Col2; assay type: cell-based; settings: 96 h, 3˜4 days incubation, absorbance at 515 nm
Description: as §1

[6] = tested on: human abdominal cavity cancer cell line (HT 1080); assay: Inhibition of cancer cell line proliferation, HT 1080; assay type: cell-based; settings: HT-1080, 96 h, HT108, 3˜4 days incubation, absorbance at 515 nm
Description: as §1

[7] = tested on: human leukemia cell line (HL-60); assay: Inhibition of cancer cell line proliferation, HL-60; assay type: cell-based; settings: HL-60, 96 h, HL60, 3˜4 days incubation, absorbance at 515 nm
Description: as §1

SMILES	% of Differentiation ([1]; 1 μM compound)	% of Differentiation ([1]; 20 μM compound)	% of Differentiation, 1,25-(OH)2D3 [2]	% of Differentiation, all-trans RA [2]	IC50 [3]	IC50 [4]	IC50 [5]	IC50 [6]	IC50 [7]
O=C1Nc2ccc(S(=O)(=O)[O-])cc2C1=C1Nc2ccccc2C1=O.[Na+] [AGM019, 3,2′-dioxo-1,3,1′,2′-tetrahydro-[2,3′] biindolylidene-5′-sodium sulfonate]	9.36 ± 0.13%	12.44 ± 1.66%	27.66 ± 1.28%	51.49 ± 0.13%	–	–	–	–	–
CC(=O)N1C(=C2C(=O)Nc3ccccc32)C(=O)c2ccccc21 [AGM006, 1-acetyl-1H,1′H-[2,3′] biindolylidene-3,2′-dione]	9.99 ± 1.47%	10.49 ± 0.25%	19.60 ± 0.56%	42.81 ± 1.05%	> 100 µM	> 100 µM	> 100 µM	> 100 µM	> 100 µM
O=C1Nc2ccccc2/C1=C1/Nc2ccccc2C1=O [Indirubin]	15.28 ± 1.12%	1.18 ± 0.18%	26.39 ± 0.98%	44.87 ± 2.54%	–	–	–	–	–
O=C1Nc2ccc([N+](=O)[O-])cc2C1=C1Nc2ccc(Br)cc2C1=O [AGM022]	18.35 ± 0.02%	22.89 ± 0.51%	48.28 ± 0.36%	51.20 ± 3.70%	–	–	–	–	–
O=C1Nc2ccc(I)cc2C1=C1Nc2ccccc2C1=NO [AGM015, 5′-iodo-1H,1′H-[2,3′] biindolylidene-3,2′-dione 3-oxime]	30.50 ± 4.97%	–	33.27 ± 0.75%	67.41 ± 1.36%	> 100 µM	> 100 µM	> 100 µM	> 100 µM	> 100 µM
Cc1ccc2c(c1)C(=C1Nc3ccccc3C1=NO)C(=O)N2 [AGM013, 5′-methyl-1H,1′H-[2,3′] biindolylidene-3,2′-dione 3-oxime]	26.22 ± 2.04%	–	35.49 ± 5.45%	70.54 ± 2.17%	20.4 µM	17.6 µM	> 100 µM	36.7 µM	65.4 µM
O=C1Nc2ccccc2C1=C1Nc2ccccc2C1=O [AGM001, 1H,1′H-[2,3′] biindolylidene-3,2′-dione]	7.76 ± 3.42%	10.00 ± 0.27%	28.36 ± 0.15%	39.61 ± 1.25%	31 µM	> 100 µM	> 100 µM	42.2 µM	–
O=C1Nc2ccc(S(=O)(=O)[O-])cc2C1=C1Nc2ccccc2C1=NO.[Na+] [AGM020, 3-hydroxyimino-2′-oxo-1,3,1′,2′-tetrahydro-[2,3′] biindolylidene-5′-sodium sulfonate]	11.34 ± 2.32%	23.86 ± 1.31%	23.34 ± 0.65%	34.50 ± 2.91%	–	–	–	–	–
Cc1cc(C)c2c(c1)C(=C1Nc3ccccc3C1=NO)C(=O)N2 [AGM016, 5′,7′-dimethyl-1H,1′H-[2,3′] biindolylidene-3,2′-dione 3-oxime]	3.07 ± 1.69%	10.35 ± 0.62%	27.24 ± 1.32%	33.99 ± 0.47%	> 100 µM	90.6 µM	> 100 µM	> 100 µM	> 100 µM
O=C1Nc2ccc(OC(F)(F)F)cc2C1=C1Nc2ccccc2C1=NO [AGM004]	22.81 ± 2.38%	–	26.36 ± 3.05%	28.68 ± 0.23%	–	–	–	–	–
O=C1Nc2ccccc2C1=C1Nc2ccc(Br)cc2C1=NO [AGM018, 5-bromo-1H,1′H-[2,3′] biindolylidene-3,2′-dione 3-oxime]	8.69 ± 4.95%	–	36.52 ± 1.27%	23.13 ± 0.71%	38.6 µM	32.9 µM	10.5 µM	73.6 µM	25 µM
O=C1Nc2ccccc2C1=C1Nc2ccc(Br)cc2C1=O [AGM021, 5-bromo-1H,1′H-[2,3′] biindolylidene-3,2′-dione]	11.63 ± 3.48%	9.64 ± 0.51%	24.64 ± 0.65%	28.23 ± 0.02%	> 100 µM	> 100 µM	> 100 µM	> 100 µM	> 100 µM
O=C1Nc2ccccc2C1=C1Nc2ccccc2C1=NO [AGM002, 1H,1′H-[2,3′] biindolylidene-3,2′-dione 3-oxime]	11.12 ± 0.31%	6.78 ± 0.40%	24.52 ± 2.67%	37.78 ± 1.06%	62 µM	> 100 µM	> 100 µM	4.8 µM	–
O=C1Nc2ccc([N+](=O)[O-])cc2C1=C1Nc2ccccc2C1=O [AGM009, 5′-nitro-1H,1′H-[2,3′] biindolylidene-3,2′-dione]	19.94 ± 2.02%	29.26 ± 1.59%	48.51 ± 3.49%	59.32 ± 1.54%	> 100 µM	> 100 µM	> 100 µM	> 100 µM	> 100 µM
O=C1Nc2ccc(OC(F)(F)F)cc2C1=C1Nc2ccccc2C1=O [AGM003]	6.27 ± 1.76%	10.36 ± 0.29%	22.04 ± 0.38%	41.01 ± 1.26%	–	–	–	–	–
